Experimental data reported in DBAASP.
Values after ≈ are worked out from the molar mass of the structure shown. Values belong to the molecule of their own block, whether it stands above or below them.

Key:
Assay in all cases: ≥ marks a high value that may be exact or a test limit, other limits are often not marked, values filed in µg/mL are converted to µM
Streptococcus mutans = tested on: Streptococcus mutans
[1] = tested on: Enterococcus faecalis ATCC 29212
Escherichia coli UB1005 = tested on: Escherichia coli UB1005
[2] = tested on: Salmonella enterica serovar Typhimurium
[3] = tested on: Staphylococcus aureus ATCC 25923
[4] = tested on: Staphylococcus epidermidis
[5] = tested on: Pseudomonas aeruginosa H103
Candida albicans = tested on: Candida albicans
Shigella dysenteriae = tested on: Shigella dysenteriae
[6] = tested on: Candida albicans ATCC 90028
[7] = tested on: Candida albicans ATCC 2002
[8] = tested on: Staphylococcus aureus NCTC 8325
[9] = tested on: Staphylococcus aureus ATCC 2592
[10] = tested on: Micrococcus luteus ATCC 9341
[11] = tested on: Bacillus subtilis ATCC 6633
Staphylococcus aureus = tested on: Staphylococcus aureus
Pseudomonas aeruginosa = tested on: Pseudomonas aeruginosa
Escherichia coli = tested on: Escherichia coli
Klebsiella pneumoniae = tested on: Klebsiella pneumoniae
Micrococcus luteus = tested on: Micrococcus luteus
Bacillus subtilis = tested on: Bacillus subtilis
Proteus mirabilis = tested on: Proteus mirabilis
Salmonella typhimurium = tested on: Salmonella typhimurium
[12] = tested on: Escherichia coli ATCC 25922
[13] = tested on: Staphylococcus epidermidis ATCC 12228
[14] = tested on: Candida parapsilosis ATCC 22019
Escherichia coli BW25113 = tested on: Escherichia coli BW25113

Compound: CC[C@H](C)[C@H](NC(=O)[C@H](Cc1ccccc1)NC(=O)[C@@H](N)Cc1ccccc1)C(=O)N[C@@H](Cc1ccc(O)cc1)C(=O)N[C@H](C(=O)N[C@@H](Cc1c[nH]c2ccccc12)C(=O)N[C@@H](CCCN=C(N)N)C(=O)N[C@@H](CCCN=C(N)N)C(=O)N[C@@H](CCCN=C(N)N)C(=O)O)C(C)C [FFIYVWRRR]
- MIC [1]: 3.8 µM (≈ 5.1 µg/mL)
- MIC (Escherichia coli UB1005): 3.8 µM (≈ 5.1 µg/mL)
- MIC [2]: 7.6 µM (≈ 10.2 µg/mL)
- MIC [3]: 1.9 µM (≈ 2.55 µg/mL)
- MIC [4]: 1 µM (≈ 1.34 µg/mL)
- MIC [5]: 15.3 µM (≈ 20.5 µg/mL)
- MIC (Candida albicans): 7.6 µM (≈ 10.2 µg/mL)

Compound: CC[C@H](C)[C@H](NC(=O)CNC(=O)[C@H](CO)NC(=O)[C@H](CC(C)C)NC(=O)[C@H](CC(C)C)NC(=O)CN)C(=O)N[C@@H](CC(C)C)C(=O)NCC(=O)N[C@@H](C)C(=O)NCC(=O)N[C@@H](CCCCN)C(=O)N[C@@H](CC(N)=O)C(=O)N[C@H](C(=O)N[C@H](C(=O)N[C@H]1CSSC[C@@H](C(=O)O)NC(=O)[C@H](CC(C)C)NC(=O)CNC(=O)[C@H](CO)NC(=O)[C@H](CC(C)C)NC(=O)CNC1=O)C(C)C)[C@@H](C)CC [GLLSGILGAGKNIVCGLSGLC]
- MIC (Shigella dysenteriae): 0.643 µM (≈ 1.25 µg/mL)
- MIC [6]: ≥ 100 µM
- MIC [7]: 3.86 µM (≈ 7.49 µg/mL)
- MIC [8]: ≥ 100 µM
- MIC [9]: 1.29 µM (≈ 2.5 µg/mL)

Compound: CC[C@H](C)[C@H](N)C(=O)N[C@@H](CC(C)C)C(=O)N1CCC[C@H]1C(=O)N[C@@H](CCCCN)C(=O)N[C@@H](CCCCN)C(=O)N[C@@H](CCCCN)C(=O)N1CCC[C@H]1C(=O)N[C@@H](CCCCN)C(=O)N[C@@H](CCCCN)C(=O)N1CCC[C@H]1C(=O)N[C@@H](CCCCN)C(=O)N[C@@H](CCCN=C(N)N)C(=O)N[C@@H](CCCN=C(N)N)C(N)=O [ILPKKKPKKPKRR]
- MIC [10]: ≥ 100 µM

Compound: CC[C@H](C)[C@H](NC(=O)[C@H](CCC(=O)O)NC(=O)[C@H](CCCCN)NC(=O)[C@H](CC(C)C)NC(=O)[C@H](CCC(N)=O)NC(=O)[C@H](CCC(=O)O)NC(=O)[C@@H](NC(=O)[C@H](CC(C)C)NC(=O)[C@@H](N)CCCCN)C(C)C)C(=O)N[C@@H](Cc1ccccc1)C(=O)N[C@@H](CCCN=C(N)N)C(=O)O [KLVEQLKEIFR]
- MIC (Streptococcus mutans): ≥ 178 µM

Compound: CC[C@H](C)[C@H](NC(=O)[C@H](CCCCN)NC(=O)[C@@H]1CCCN1C(=O)[C@H](CC(C)C)NC(=O)[C@H](Cc1ccccc1)NC(=O)[C@H](CC(C)C)NC(=O)[C@@H]1CCCN1C(=O)[C@H](CC(C)C)NC(=O)[C@@H](N)Cc1ccccc1)C(=O)N[C@H](C(=O)N[C@H]1CSSC[C@@H](C(=O)O)NC(=O)[C@H](CCCCN)NC(=O)[C@H](CCCCN)NC(=O)[C@H]([C@@H](C)O)NC(=O)[C@H]([C@@H](C)CC)NC(=O)[C@H](C(C)C)NC1=O)[C@@H](C)CC [FLPLFLPKIICVITKKC]
- MIC (Shigella dysenteriae): 17.7 µM (≈ 35 µg/mL)
- MIC [7]: 9.49 µM (≈ 18.7 µg/mL)
- MIC [11]: 4.75 µM (≈ 9.37 µg/mL)
- MIC [9]: 2.38 µM (≈ 4.7 µg/mL)

Compound: CC[C@H](C)[C@@H]1NC(=O)[C@H](C)NC(=O)[C@@H](NC(=O)[C@H](CCCCN)NC(=O)[C@@H](NC(=O)[C@H](CO)NC(=O)[C@@H]2CCCN2C(=O)[C@H](CC(C)C)NC(=O)[C@@H](NC(=O)[C@H](CCCCN)NC(=O)[C@H](CO)NC(=O)[C@H](C)NC(=O)[C@@H](NC(=O)[C@H](CCCCN)NC(=O)[C@H](Cc2ccccc2)NC(=O)[C@H](CC(C)C)NC(=O)[C@H](C)NC(=O)CNC(=O)[C@H](CC(C)C)NC(=O)[C@@H](N)Cc2ccccc2)C(C)C)C(C)C)C(C)C)CSSC[C@@H](C(=O)O)NC(=O)[C@H](CCCCN)NC(=O)[C@H](CCCCN)NC(=O)[C@H]([C@@H](C)O)NC1=O [FLGALFKVASKVLPSVKCAITKKC]
- MIC (Shigella dysenteriae): 19.6 µM (≈ 50 µg/mL)
- MIC (Staphylococcus aureus): 1.21 µM (≈ 3.1 µg/mL)
- MIC (Pseudomonas aeruginosa): 78.4 µM (≈ 200 µg/mL)
- MIC (Escherichia coli): 4.9 µM (≈ 12.5 µg/mL)
- MIC (Klebsiella pneumoniae): 9.8 µM (≈ 25 µg/mL)
- MIC [4]: 4.9 µM (≈ 12.5 µg/mL)
- MIC (Micrococcus luteus): 2.47 µM (≈ 6.3 µg/mL)
- MIC (Bacillus subtilis): 2.47 µM (≈ 6.3 µg/mL)
- MIC (Proteus mirabilis): ≥ 78.4 µM
- MIC (Salmonella typhimurium): ≥ 39.2 µM

Compound: CC[C@H](C)[C@H](N)C(=O)N[C@H](C(=O)N1CCC[C@H]1C(=O)N[C@@H](Cc1ccccc1)C(=O)N[C@@H](CC(C)C)C(=O)N[C@@H](CC(C)C)C(=O)NCC(=O)N[C@@H](CCSC)C(=O)N[C@H](C(=O)N1CCC[C@H]1C(=O)N[C@@H](CCCCN)C(=O)N[C@@H](CC(C)C)C(=O)N[C@H](C(=O)N[C@H]1CSSC[C@@H](C(=O)O)NC(=O)[C@H](CCCCN)NC(=O)[C@H](CCCCN)NC(=O)[C@H]([C@@H](C)O)NC(=O)[C@H]([C@@H](C)CC)NC(=O)[C@H](CC(C)C)NC1=O)C(C)C)C(C)C)C(C)C [IVPFLLGMVPKLVCLITKKC]
- MIC [12]: 64 µM (≈ 142 µg/mL)
- MIC [13]: 4 µM (≈ 8.86 µg/mL)
- MIC [14]: 16 µM (≈ 35.4 µg/mL)

Compound: CC[C@H](C)[C@H](N)C(=O)N[C@@H](CC(C)C)C(=O)N1CCC[C@H]1C(=O)N[C@@H](CCC(=O)O)C(=O)N[C@@H](CCCCN)C(=O)N[C@@H](CCC(=O)O)C(=O)N1CCC[C@H]1C(=O)N[C@@H](CCC(=O)O)C(=O)N[C@@H](CCC(=O)O)C(=O)N1CCC[C@H]1C(=O)N[C@@H](CCC(=O)O)C(=O)N[C@@H](CCCN=C(N)N)C(=O)N[C@@H](CCCN=C(N)N)C(N)=O [ILPEKEPEEPERR]
- MIC [10]: ≥ 100 µM

Compound: CC(C)C[C@H](NC(=O)[C@@H](NC(=O)[C@H](CCCCN)NC(=O)[C@H](CO)NC(=O)[C@H](C)NC(=O)[C@@H](NC(=O)[C@H](CCCCN)NC(=O)[C@H](Cc1ccccc1)NC(=O)[C@H](CC(C)C)NC(=O)[C@H](C)NC(=O)CN)C(C)C)C(C)C)C(=O)O [GALFKVASKVL]
- MIC (Shigella dysenteriae): ≥ 177 µM
- MIC (Staphylococcus aureus): 177 µM (≈ 200 µg/mL)
- MIC (Pseudomonas aeruginosa): > 177 µM
- MIC (Escherichia coli): 177 µM (≈ 200 µg/mL)
- MIC (Klebsiella pneumoniae): > 177 µM
- MIC [4]: ≥ 177 µM
- MIC (Micrococcus luteus): ≥ 177 µM
- MIC (Bacillus subtilis): ≥ 177 µM
- MIC (Proteus mirabilis): ≥ 177 µM
- MIC (Salmonella typhimurium): ≥ 177 µM

Continued, values first:

- MIC (Streptococcus mutans): 3.65 µM (≈ 8 µg/mL)
Compound: NC(=O)[C@H](Cc1cnc[nH]1)NC(=O)[C@H](Cc1ccccc1)NC(=O)[C@H](Cc1ccccc1)NC(=O)[C@H](Cc1cnc[nH]1)NC(=O)[C@H](Cc1cnc[nH]1)NC(=O)[C@H](Cc1ccccc1)NC(=O)[C@H](Cc1cnc[nH]1)NC(=O)[C@H](CCCN=C(N)N)NC(=O)[C@H](Cc1c[nH]c2ccccc12)NC(=O)[C@H](Cc1c[nH]c2ccccc12)NC(=O)[C@H](CCCN=C(N)N)NC(=O)[C@H](CCCN=C(N)N)NC(=O)[C@H](Cc1c[nH]c2ccccc12)NC(=O)[C@@H](N)CCCN=C(N)N [RWRRWWRHFHHFFH]

- MIC (Streptococcus mutans): ≥ 461 µM
Compound: NCCCC[C@H](NC(=O)[C@H](CCCN=C(N)N)NC(=O)[C@H](CCCN=C(N)N)NC(=O)[C@H](CCCCN)NC(=O)[C@H](Cc1c[nH]c2ccccc12)NC(=O)[C@H](CCCN=C(N)N)NC(=O)[C@@H](N)CCCN=C(N)N)C(=O)O [RRWKRRK]

- MIC [10]: 0.4 µM (≈ 0.633 µg/mL)
Compound: NCCCC[C@H](NC(=O)[C@@H](N)Cc1c[nH]c2ccccc12)C(=O)N[C@@H](Cc1c[nH]c2ccccc12)C(=O)N1CCC[C@H]1C(=O)N[C@@H](Cc1c[nH]c2ccccc12)C(=O)N[C@@H](Cc1c[nH]c2ccccc12)C(=O)N1CCC[C@H]1C(=O)N[C@@H](Cc1c[nH]c2ccccc12)C(=O)N[C@@H](CCCN=C(N)N)C(=O)N[C@@H](CCCN=C(N)N)C(N)=O [WKWPWWPWRR]

- MIC (Streptococcus mutans): 26.6 µM (≈ 32 µg/mL)
Compound: NC(N)=NCCC[C@H](NC(=O)[C@H](Cc1c[nH]c2ccccc12)NC(=O)[C@H](Cc1c[nH]c2ccccc12)NC(=O)[C@H](Cc1c[nH]c2ccccc12)NC(=O)[C@H](CCCN=C(N)N)NC(=O)[C@H](CCCN=C(N)N)NC(=O)[C@@H](N)CCCN=C(N)N)C(=O)O [RRRWWWR]

- MIC (Escherichia coli BW25113): 8 µM (≈ 18.2 µg/mL)
Compound: CC[C@H](C)[C@H](NC(=O)[C@@H]1CCCN1C(=O)[C@H](CCCN=C(N)N)NC(=O)[C@H](CCCN=C(N)N)NC(=O)[C@H](Cc1ccccc1)NC(=O)[C@@H](N)CCCN=C(N)N)C(=O)N[C@@H](CCCN=C(N)N)C(=O)N[C@@H](CCCN=C(N)N)C(=O)N[C@@H](CCCN=C(N)N)C(=O)N1CCC[C@H]1C(=O)N[C@H](C(=O)N[C@@H](CCCN=C(N)N)C(=O)N1CCC[C@H]1C(=O)N1CCC[C@H]1C(=O)N[C@@H](Cc1ccccc1)C(=O)N[C@@H](Cc1ccc(O)cc1)C(=O)N1CCC[C@H]1C(=O)O)[C@@H](C)CC [RFRRPIRRRPIRPPFYP]
